Reference: patent US11944626B2, “Small molecule inhibitors of ALDH and uses thereof” (The Regents of the University of Michigan, priority 2016, dated 2024)

Tests used:
Assay in all cases: Inhibition of ALDH isoenzymes (NAD(P)H formation at 340 nm, purified recombinant enzyme);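 as to ALDH2 % Control at 20 μM: run at 25 °C, started by adding substrate after 2 min preincubation, with 100-200 nM ALDH2, 200 µM NAD+, 100 µM propionaldehyde, 1% DMSO in BES buffer pH 7.5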
Assay type in all cases: biochemical
ALDH1A2 = biological target: T1, ALDH1A2 (Homo sapiens, UniProt O94788); conditions: for IC50: 100-200 nM enzyme, 200 μM NAD+, 100 μM propionaldehyde, pH 7.5, 25° C.; for remaining activity at 20 µM: compound at 20 μM, read-out: ALDH1A2 % Control at 20 μM
T1 sequence (O94788 1-518): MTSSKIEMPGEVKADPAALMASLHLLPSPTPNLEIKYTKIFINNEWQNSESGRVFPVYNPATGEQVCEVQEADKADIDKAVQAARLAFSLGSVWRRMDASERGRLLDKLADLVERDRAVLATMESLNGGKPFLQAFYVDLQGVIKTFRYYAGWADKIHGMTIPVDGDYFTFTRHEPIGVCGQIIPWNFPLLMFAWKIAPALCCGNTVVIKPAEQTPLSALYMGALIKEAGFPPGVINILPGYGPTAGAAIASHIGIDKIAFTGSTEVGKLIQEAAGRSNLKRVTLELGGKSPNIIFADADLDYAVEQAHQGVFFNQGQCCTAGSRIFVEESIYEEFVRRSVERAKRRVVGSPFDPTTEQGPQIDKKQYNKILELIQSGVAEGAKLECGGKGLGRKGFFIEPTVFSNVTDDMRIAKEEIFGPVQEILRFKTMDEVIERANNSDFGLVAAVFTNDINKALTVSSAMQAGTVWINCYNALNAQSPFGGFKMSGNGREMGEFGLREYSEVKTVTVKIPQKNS

ALDH1A3 = biological target: T2, ALDH1A3 (Homo sapiens, UniProt P47895); conditions: for IC50: 100-200 nM enzyme, 200 μM NAD+, 100 μM propionaldehyde, pH 7.5, 25° C.; for remaining activity at 20 µM: compound at 20 μM, read-out: ALDH1A3 % Control at 20 μM
T2 sequence (P47895 1-512): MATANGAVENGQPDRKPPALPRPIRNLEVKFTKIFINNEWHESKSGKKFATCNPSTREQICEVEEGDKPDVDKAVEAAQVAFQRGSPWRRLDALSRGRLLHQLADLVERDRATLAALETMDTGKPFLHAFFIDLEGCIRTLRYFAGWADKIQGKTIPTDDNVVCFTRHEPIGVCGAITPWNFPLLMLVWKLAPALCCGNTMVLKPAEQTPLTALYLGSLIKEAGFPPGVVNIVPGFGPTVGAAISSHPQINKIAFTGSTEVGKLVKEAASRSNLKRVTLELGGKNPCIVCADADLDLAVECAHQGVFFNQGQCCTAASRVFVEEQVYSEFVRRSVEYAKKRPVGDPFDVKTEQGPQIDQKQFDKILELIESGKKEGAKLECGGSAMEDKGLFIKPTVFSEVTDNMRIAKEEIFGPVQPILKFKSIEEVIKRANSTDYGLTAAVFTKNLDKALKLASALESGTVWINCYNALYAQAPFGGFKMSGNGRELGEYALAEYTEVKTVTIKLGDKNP

ALDH1A1 = biological target: T3, ALDH1A1 (Homo sapiens, UniProt P00352); conditions: for IC50: 100-200 nM enzyme, 200 μM NAD+, 100 μM propionaldehyde, pH 7.5, 25° C.; for remaining activity at 20 µM: compound at 20 μM, read-out: ALDH1A1 % Control at 20 μM
T3 sequence (P00352 1-501): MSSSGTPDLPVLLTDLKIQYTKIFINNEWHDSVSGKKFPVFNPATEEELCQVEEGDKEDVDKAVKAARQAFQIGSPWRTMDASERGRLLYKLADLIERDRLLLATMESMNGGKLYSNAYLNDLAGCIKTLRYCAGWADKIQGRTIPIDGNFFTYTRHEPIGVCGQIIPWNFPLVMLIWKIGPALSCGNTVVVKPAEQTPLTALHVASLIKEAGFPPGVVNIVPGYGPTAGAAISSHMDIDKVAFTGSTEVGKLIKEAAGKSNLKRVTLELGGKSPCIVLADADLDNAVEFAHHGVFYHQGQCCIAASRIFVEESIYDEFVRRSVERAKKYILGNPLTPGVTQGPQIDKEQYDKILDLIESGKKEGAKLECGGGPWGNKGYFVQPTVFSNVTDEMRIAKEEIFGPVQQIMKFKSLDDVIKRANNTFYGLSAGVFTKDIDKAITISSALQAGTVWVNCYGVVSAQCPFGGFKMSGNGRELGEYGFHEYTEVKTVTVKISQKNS

ALDH2 = biological target: T4, ALDH2 (Homo sapiens, UniProt P05091); conditions: compound at 20 μM; read-out: ALDH2 % Control at 20 μM;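 also: run at 25 °C, started by adding substrate after 2 min preincubation, with 100-200 nM ALDH2, 200 µM NAD+, 100 µM propionaldehyde, 1% DMSO in BES buffer pH 7.5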
T4 sequence (P05091 18-517): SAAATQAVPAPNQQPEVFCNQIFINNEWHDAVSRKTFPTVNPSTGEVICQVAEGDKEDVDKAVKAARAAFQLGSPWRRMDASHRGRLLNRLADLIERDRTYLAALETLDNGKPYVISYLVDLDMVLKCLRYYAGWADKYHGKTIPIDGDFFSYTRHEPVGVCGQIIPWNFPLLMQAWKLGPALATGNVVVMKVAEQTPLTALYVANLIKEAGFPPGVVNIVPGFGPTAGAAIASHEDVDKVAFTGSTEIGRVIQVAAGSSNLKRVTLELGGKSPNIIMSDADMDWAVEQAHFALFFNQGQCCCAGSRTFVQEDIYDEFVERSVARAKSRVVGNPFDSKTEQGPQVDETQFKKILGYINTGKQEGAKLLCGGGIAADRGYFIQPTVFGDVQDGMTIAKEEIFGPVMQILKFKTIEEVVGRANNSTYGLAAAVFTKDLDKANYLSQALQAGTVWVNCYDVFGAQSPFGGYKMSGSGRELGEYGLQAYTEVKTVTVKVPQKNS

SMILES | IC50 (ALDH1A2) [µM] | IC50 (ALDH1A3) [µM] | IC50 (ALDH1A1) [µM] | remaining activity at 20 µM (ALDH2) [%] | remaining activity at 20 µM (ALDH1A1) [%] | remaining activity at 20 µM (ALDH1A2) [%] | remaining activity at 20 µM (ALDH1A3) [%]
Cc1ccccc1-n1c(SCc2cccc(F)c2)nc2[nH]ncc2c1=O [Example 1, 6-((3-fluorobenzyl)thio)-5-(o-tolyl)-1H-pyrazolo[3,4-d]pyrimidin-4(5H)-one] | 4.7 | > 20 |  |  |  |  | 
CCn1ncc2c(=O)n(-c3ccccc3C)c(SCc3cccc(F)c3)nc21 [Example 5, 1-ethyl-6-((3-fluorobenzyl)thio)-5-(o-tolyl)-1H-pyrazolo[3,4-d]pyrimidin-4(5H)-one] | 15 | > 10 | 0.35 | 93 |  |  | 
CCn1cc2c(=O)n(-c3ccccc3C)c(SCc3cccc(F)c3)nc2n1 [Example 6, 2-ethyl-6-((3-fluorobenzyl)thio)-5-(o-tolyl)-2H-pyrazolo[3,4-d]pyrimidin-4(5H)-one] | 5.2 | 7.5 | 0.4 | 91 |  |  | 
O=c1c2cnn(C3COC3)c2nc(SCc2cccc(F)c2)n1-c1ccccc1 [Example 18, 6-((3-fluorobenzyl)thio)-1-(oxetan-3-yl)-5-phenyl-H-pyrazolo[3,4-d]pyrimidin-4(5H)-one] |  |  |  |  | 2 | 7 | 9
Cc1ccccc1-n1c(NCc2cccc(F)c2)nc2[nH]ncc2c1=O [Example 22, 6-((3-fluorobenzyl)amino)-5-(o-tolyl)-1H-pyrazolo[3,4-d]pyrimidin-4(5H)-one] |  |  |  | 96 | 61 | 96 | 90
Cc1ccccc1-n1c(NCCc2cccc(F)c2)nc2c(cnn2C)c1=O [Example 23, 6-((3-fluorophenethyl)amino)-1-methyl-5-(o-tolyl)-1H-pyrazolo[3,4-d]pyrimidin-4(5H)-one] |  |  |  | 94 | 66 | 68 | 100
Cc1ccccc1-n1c(OCc2cccc(F)c2)nc2c(cnn2C)c1=O [Example 24, 6-((3-fluorobenzyl)oxy)-1-methyl-5-(o-tolyl)-1H-pyrazolo[3,4-d]pyrimidin-4(5H)-one] |  |  | 1.2 | 95 |  | 72 | 66
Cn1ncc2c(=O)n(-c3ccccc3)c(COc3cccc(F)c3)nc21 [Example 25, 6-((3-fluorophenoxy)methyl)-1-methyl-5-phenyl-1H-pyrazolo[3,4-d]pyrimidin-4(5H)-one] |  |  |  | 101 | 24 | 65 | 83

Continued, values first:

IC50 (ALDH1A2) [µM] | IC50 (ALDH1A3) [µM] | IC50 (ALDH1A1) [µM] | remaining activity at 20 µM (ALDH2) [%] | remaining activity at 20 µM (ALDH1A1) [%] | remaining activity at 20 µM (ALDH1A2) [%] | remaining activity at 20 µM (ALDH1A3) [%] | SMILES
 |  |  | 98 | 24 |  | 26 | Cn1ncc2c(=O)n(-c3ccccc3)c(CCc3cccc(F)c3)nc21 [Example 48, 6-(3-fluorophenethyl)-1-methyl-5-phenyl-1H-pyrazolo[3,4-d]pyrimidin-4(5H)-one]
 |  |  |  |  |  | 9 | Cn1ncc2c(=O)n(-c3ccccc3F)c(SCc3cccc(F)c3)nc21 [Example 56, 6-((3-fluorobenzyl)thio)-5-(2-fluorophenyl)-1-methyl-1H-pyrazolo[3,4-d]pyrimidin-4(5H)-one]
 |  |  | 92 | 9 | 1 |  | CC(Sc1nc2c(cnn2C)c(=O)n1-c1ccccc1)c1ccccn1 (stereo not drawn) [Example 79, 1-methyl-5-phenyl-6-((1-(pyridin-2-yl)ethyl)thio)-1H-pyrazolo[3,4-d]pyrimidin-4(5H)-one]
 |  |  | 96 | 6 | 7 |  | CC(Sc1nc2c(cnn2C)c(=O)n1-c1ccccc1)c1cccnc1 (stereo not drawn) [Example 80, 1-methyl-5-phenyl-6-((1-(pyridin-3-yl)ethyl)thio)-1H-pyrazolo[3,4-d]pyrimidin-4(5H)-one]
